Laboratory results reported in patent publication US7071294B1, “Tumor antigen protein art-1 and tumor antigen peptide thereof” (Green Peptide Co., Ltd., priority 1998, dated 2006).
Where no end group is shown, it is not given here.

T1: HLA-A2402 expressed on COS-7 cells transfected with a recombinant plasmid for HLA-A2402 cDNA (human, UniProt P04439-2 25-302 at identity 0.92))
T1 MHC heavy: not shown


Experiments:
KG-CTL = test: IFN-γ production by KG-CTL in response to HLA-A2402-transfected COS-7 cells pulsed with peptide (ELISA); type: cell-based, human; details: COS-7 transfected with HLA-A2402 cDNA
Experimental: A surgical sample taken from a patient with lung cancer was cut into small pieces, and then stirred in a culture fluid containing collagenase and DNAse to suspend cells. The cell suspension was centrifuged using Ficoll Conray solution to separate lymphocytes. The lymphocytes were cultured on 24-well plate in a culture medium consisting of 45% RPMI-1640, 45% AIM-V (GIBCO BRL), and 10% FCS supplemented with 100 U/ml interleukin-2 and 0.1 mM NEAA (GIBCO BRL) (hereinafter referred to as lymphocyte medium). During the first two days of the cultivation, an anti-CD3 antibody NU-T3 (Nichirei Corporation) was added to the culture medium at 1 μg/ml. The cultivation was continued for more than 30 days, and a CTL line that is reactive with some kinds of HLA-A24- or HLA-A2-positive cancer cell lines was established. The established CTL line was named KG-CTL and used in subsequent procedures. The reactivity of KG-CTL to each cancer cell line was examined by inoculating the cancer cell line into 96-well plate at 1×10^4, adding KG-CTL at 1×10^5/well thereto on the following day, culturing the same for additional 18 hours, and then determining amount of interferon-γ (IFN-γ) produced by KG-CTL in the recovered culture medium. Measurement of IFN-γ was conducted by enzyme immunoassay (ELISA). […] Anti-human IFN-γ rabbit polyclonal antibody as detection antibody was then allowed to bind, and after binding to an anti-rabbit immunoglobulin goat antibody labeled with […] (Amersham), the chromophore was developed using Peroxidase Chromophoric Kit T (Sumitomo Bakelite), followed by measuring absorbance at 405 nm. The absorbance was compared with that obtained with standard IFN-γ to determine the amount of IFN-γ in the sample. […] The cells were then cultured with 2×10^4 KG-CTLs for 18 hours, and the amount of IFN-γ produced by KG-CTL in the culture supernatant was determined by the ELISA method, thus identifying tumor antigen peptides.

[1] = test system: peripheral blood lymphocytes; test: CTL induction from peripheral blood lymphocytes by tumor antigen peptides; IFN-γ produced in response to MT-2 target cells (ELISA); type: cell-based, human; details: for IFN-γ in Supernatant: HLA-A24 heterozygous healthy donor lymphocytes stimulated three times with 10 μM peptide, 8×10^4 lymphocytes vs 1×10^4 MT-2 target cells, no peptide gave 3; for IFN-γ production by peptide-stimulated peripheral blood lymphocytes in response to the target cell (CTL induction): MT-2 target cells, not seen with no stimulation
Experimental: Using the Ficoll method, lymphocytes were separated from peripheral blood of healthy donors who were heterozygous for A24 in the HLA-A locus. The lymphocytes were placed into wells of a 24-well plate at 2×10^6 cells/well, and cultured in the lymphocyte medium. The above tumor antigen peptides were added to the culture medium at 10 μM to stimulate the peripheral blood lymphocytes. One week later, the above tumor antigen peptides were added to attain 10 μM together with about 2×10^5 cells of X-radiated (50 Gy) peripheral blood lymphocytes for the second stimulation. Additional one week later, the third stimulation was conducted in a similar manner. Cultured lymphocytes were harvested one week after the third stimulation. Using as target cells (1×10^4 cells) MT-2, which is an HLA-A2402-positive leukemia cell line expressing the tumor antigen peptide, the amount of IFN-γ in the culture medium produced by the above lymphocytes (8×10^4 cells) in response to the target cells was measured in accordance with ELISA method.

[2] = target: T1, HLA-A2402 expressed on COS-7 cells …; test: cell-based or functional assay

| Amount of IFN-γ produced by KG-CTL in the response [2] | Molecule | Reactivity of KG-CTLs compared to cells pulsed with no peptide (KG-CTL) | IFN-γ in Supernatant [1] | IFN-γ production by peptide-stimulated peripheral blood lymphocytes in response to the target cell (CTL induction) [1] |
| --- | --- | --- | --- | --- |
|  | EYCLKFTKL [188–196] | reacted more strongly | 147 pg/mL | produced IFN-γ in response to the target cell |
|  | LYQAVATI [158–165] | reacted more strongly | 330 pg/mL | produced IFN-γ in response to the target cell |
|  | GFDCANESVL [170–179] | reacted more strongly | 237 pg/mL | produced IFN-γ in response to the target cell |
| 289 pg/mL | LYQAVATI |  |  |  |
| 458 pg/mL | GFDCANESVL |  |  |  |
| 399 pg/mL | EYCLKFTKL |  |  |  |
